Assay results published in patent US4770998A, “Biochemical assay of aldehydes” (Mobil Oil Corporation, priority 1985, dated 1988).

Experiments:
[1] = test system: Mouse lymphoma L5178Y cells (clone 3.7.2C); assay: Mouse lymphoma mutagenicity assay (TK locus) with total growth, nonactivated (without S-9), with and without FDH plus NAD; format: cell-based
Description: All tests preferably are performed in duplicate.
In this example the dose-dependent mutagenic effect of formaldehyde on lymphoma cultures, both with and without FDH plus NAD, was investigated in the absence of S-9 activation.

[2] = known stoichiometric release; cited from earlier work
[3] = test system: Mouse lymphoma L5178Y cells (clone 3.7.2C); assay: Mouse lymphoma mutagenicity assay (TK locus) with total growth, with S-9 activation, with FDH plus NAD; conditions: 2.5 and 5.0 ug/ml
Description: Mouse lymphoma L5178Y cells (clone 3.7.2C) ATCC CRL 9518 are preferred since these indicator cells are useful for mutagenicity as well as for toxicity assay.
The L5178Y mouse lymphoma indicator cells (clone 3.7.2C) are stored in liquid nitrogen. Cultures are thawed and are maintained in logarithmic growth by serial subculturing for up to six weeks. Cultures are grown at 37° C. in either a shaker incubator or a roller-harvester incubator. […] Cultures are cleansed on a weekly basis, as described by Clive et al. (1979), to reduce the frequency of spontaneous TK-/- mutants and thus maintain minimum mutant frequencies in the negative controls.
The medium for suspension culture of the cells is Fischer's medium (for leukemic mice) supplemented with heat-inactivated horse serum (10%, v/v), sodium pyruvate (1 mM) and Pluronic (0.1%, w/v). […]
Logarithmically growing cultures of recently cleansed lymphoma cells are counted and adjusted to 1×10^6 cells/ml for use in the assays. […]
An expression period of 2 days is used to allow recovery, growth and expression of the TK-/- phenotype. Cell population densities will be determined on Day 1 (approximately 24 hours after treatment) and is adjusted to 3×10^5 cells/ml to maintain optimal growth rates. Cell population densities are then determined on Day 2 (approximately 44 hours after treatment), and appropriated cultures selected for mutant analysis. […]

SMILES: CCOS(C)(=O)=O [EMS, ethylmethane sulfonate]
- reduction of mutagenicity with addition of FDH plus NAD ([1]; 0.5 and 1.0 ul/ml, without S-9): No reduction of toxicity or mutagenicity
- reduction of toxicity with addition of FDH plus NAD ([1]; 0.5 and 1.0 ul/ml, without S-9): No reduction of toxicity or mutagenicity

SMILES: O=[N+]([O-])C(CO)(CO)CO [TNM, Tris-(hydroxymethyl) nitromethane]
- total growth / toxicity [1]: Dose dependent increases in toxicity and mutagenicity
- toxicity with FDH and NAD [1]: absent
- mutagenicity with FDH and NAD ([1]; supplemented with FDH and NAD, without S-9): absent
- mutant frequency / mutagenicity ([1]; without FDH/NAD, without S-9): Dose dependent increases in toxicity and mutagenicity
- formaldehyde released [2]: 3 mols of formaldehyde per mol of TNM

SMILES: Cc1c2ccccc2c(C)c2c1ccc1ccccc12 [DMBA, 7,12-dimethylbenz[a]anthracene]
- reduction of mutagenicity with addition of FDH plus NAD [3]: No reduction of toxicity or mutagencity
- reduction of toxicity with addition of FDH plus NAD [3]: No reduction of toxicity or mutagencity
